# Experimental data: publication PMC10141580, “Cyclic Dichalcogenides Extend the Reach of Bioreductive Prodrugs to Harness Thiol/Disulfide Oxidoreductases: Applications to seco-Duocarmycins Targeting the Thioredoxin System” (ACS Central Science, 2023)
# Read-outs that look alike come from different tables or passages of the source.
# System: panel of 140 standard cancer cell lines
# Assay: ProliFiler-140 cancer cell line screen (CellTiterGlo, 72 h)
# Type: cell-based
# Experimental: Incubations were performed for 72 h before automated viability readout with CellTiterGlo (Figure 8).
# End of Figure S11 (part 5 of 5): ProliFiler-140 cancer cell line screening for cytotoxicity of the prodrugs.
# 8-data-point dose response curves from CellTiter-Glo® viability readout.
# ProliFiler-140 cell line panel part V
smiles,measurement,setting,value
"COc1cccc2c1C(=O)c1c(O)c3c(c(O)c1C2=O)C[C@@](O)(C(=O)CO)C[C@@H]3O[C@H]1C[C@H](N)[C@H](O)[C@H](C)O1 [doxorubicin, reference compound]",IC50,"A172 (Brain), listed as Dox, read-out: IC50 [M] (ProliFiler-140)",9.4e-08 M
same,IC50,"A375 (Skin), listed as Dox, read-out: IC50 [M] (ProliFiler-140)",4.8e-08 M
same,IC50,"A427 (Lung), listed as Dox, read-out: IC50 [M] (ProliFiler-140)",6.56e-08 M
same,IC50,"A431 (Skin), listed as Dox, read-out: IC50 [M] (ProliFiler-140)",1.7e-07 M
same,IC50,"A549 (Lung), listed as Dox, read-out: IC50 [M] (ProliFiler-140)",3.11e-07 M
same,IC50,"A2058 (Skin), listed as Dox, read-out: IC50 [M] (ProliFiler-140)",3.73e-08 M
same,IC50,"AsPC-1 (Pancreas), listed as Dox, read-out: IC50 [M] (ProliFiler-140)",1.16e-06 M
same,IC50,"BT-20 (Breast), listed as Dox, read-out: IC50 [M] (ProliFiler-140)",2.35e-07 M
same,IC50,"BxPC-3 (Pancreas), listed as Dox, read-out: IC50 [M] (ProliFiler-140)",2.8e-07 M
same,IC50,"COR-L279 (Lung), listed as Dox, read-out: IC50 [M] (ProliFiler-140)",7.88e-08 M
same,IC50,"COV434 (Ovary), listed as Dox, read-out: IC50 [M] (ProliFiler-140)",6.97e-08 M
same,IC50,"COV434, COV434 (Ovary), read-out: IC50 [M] (ProliFiler-140)",7e-08 M
same,IC50,"Caki-1 (Kidney), listed as Dox, read-out: IC50 [M] (ProliFiler-140)",3.4e-07 M
same,IC50,"Caki-2 (Kidney), listed as Dox, read-out: IC50 [M] (ProliFiler-140)",1e-06 M
same,IC50,"Calu-6 (Lung), listed as Dox, read-out: IC50 [M] (ProliFiler-140)",7.7e-07 M
same,IC50,"DU-145 (Prostate), listed as Dox, read-out: IC50 [M] (ProliFiler-140)",1.52e-07 M
same,IC50,"DV90 (Lung), listed as Dox, read-out: IC50 [M] (ProliFiler-140)",1.95e-08 M
same,IC50,"EFM-19 (Breast), listed as Dox, read-out: IC50 [M] (ProliFiler-140)",4.73e-07 M
same,IC50,"EFM-192A (Breast), listed as Dox, read-out: IC50 [M] (ProliFiler-140)",7.35e-07 M
same,IC50,"EFM-192A, EFM-192A (Breast), read-out: IC50 [M] (ProliFiler-140)",7.3e-07 M
same,IC50,"EFO-27 (Ovary), listed as Dox, read-out: IC50 [M] (ProliFiler-140)",2.93e-07 M
same,IC50,"H4 (Brain), listed as Dox, read-out: IC50 [M] (ProliFiler-140)",8.2e-08 M
same,IC50,"H4 (Brain), read-out: IC50 [M] (ProliFiler-140)",8.18e-08 M
same,IC50,"H1299 (Lung), listed as Dox, read-out: IC50 [M] (ProliFiler-140)",2.2e-07 M
same,IC50,"H2228 (Lung), listed as Dox, read-out: IC50 [M] (ProliFiler-140)",5.7e-08 M
same,IC50,"HCC202 (Breast), listed as Dox, read-out: IC50 [M] (ProliFiler-140)",7.65e-07 M
same,IC50,"HCC202, HCC202 (Breast), read-out: IC50 [M] (ProliFiler-140)",7.6e-07 M
same,IC50,"HCC827 (Lung), listed as Dox, read-out: IC50 [M] (ProliFiler-140)",3.48e-07 M
same,IC50,"HCC 1569 (Breast), listed as Dox, read-out: IC50 [M] (ProliFiler-140)",7.01e-07 M
same,IC50,"HCT-15 (Colon), listed as Dox, read-out: IC50 [M] (ProliFiler-140)",6.4e-07 M
same,IC50,"HEC-1-A (Endometrium), listed as Dox, read-out: IC50 [M] (ProliFiler-140)",3.27e-07 M
same,IC50,"HEC-1-B (Endometrium), listed as Dox, read-out: IC50 [M] (ProliFiler-140)",2.37e-06 M
same,IC50,"HL-60 (Blood), listed as Dox, read-out: IC50 [M] (ProliFiler-140)",2.65e-08 M
same,IC50,"HT-29 (Colon), listed as Dox, read-out: IC50 [M] (ProliFiler-140)",3.69e-07 M
same,IC50,"HeLa (Cervix), listed as Dox, read-out: IC50 [M] (ProliFiler-140)",8e-08 M
same,IC50,"Hep3B2.1-7 (Liver), listed as Dox, read-out: IC50 [M] (ProliFiler-140)",5.32e-07 M
same,IC50,"Hep3B2.1-7 (Liver), read-out: IC50 [M] (ProliFiler-140)",5.3e-07 M
same,IC50,"Homo sapiens, 786-0, 786-O (Kidney), read-out: IC50 [M] (ProliFiler-140)",1.15e-07 M
same,IC50,"Homo sapiens, 786-0, 786-O, read-out: IC50",1.1e-07 M
same,IC50,"Homo sapiens, A 172, A172 (Brain), read-out: IC50 [M] (ProliFiler-140)",9.38e-08 M
same,IC50,"Homo sapiens, A498, A498 (Kidney), read-out: IC50 [M] (ProliFiler-140)",3.22e-07 M
same,IC50,"Homo sapiens, A498, A498, read-out: IC50",3.2e-07 M
same,IC50,"Homo sapiens, A549, A549, read-out: IC50",3.1e-07 M
same,IC50,"Homo sapiens, A2058, A2058 (Skin), read-out: IC50 [M] (ProliFiler-140)",3.7e-08 M
same,IC50,"Homo sapiens, A2780, A2780 (Ovary), read-out: IC50 [M] (ProliFiler-140)",1.8e-08 M
same,IC50,"Homo sapiens, A-375, A375 (Skin), read-out: IC50 [M] (ProliFiler-140)",4.76e-08 M
same,IC50,"Homo sapiens, A-427, A427 (Lung), read-out: IC50 [M] (ProliFiler-140)",6.6e-08 M
same,IC50,"Homo sapiens, A-431, A431 (Skin), read-out: IC50 [M] (ProliFiler-140)",1.74e-07 M
same,IC50,"Homo sapiens, ASPC1, AsPC-1 (Pancreas), read-out: IC50 [M] (ProliFiler-140)",1.2e-06 M
same,IC50,"Homo sapiens, BT-20, BT-20 (Breast), read-out: IC50 [M] (ProliFiler-140)",2.3e-07 M
same,IC50,"Homo sapiens, BXPC-3, BxPC-3 (Pancreas), read-out: IC50 [M] (ProliFiler-140)",2.78e-07 M
same,IC50,"Homo sapiens, CAKI-1, Caki-1 (Kidney), read-out: IC50 [M] (ProliFiler-140)",3.39e-07 M
same,IC50,"Homo sapiens, CAKI-2, Caki-2 (Kidney), read-out: IC50 [M] (ProliFiler-140)",1.03e-06 M
same,IC50,"Homo sapiens, COR-L279, COR-L279 (Lung), read-out: IC50 [M] (ProliFiler-140)",7.9e-08 M
same,IC50,"Homo sapiens, Calu-6, Calu-6 (Lung), read-out: IC50 [M] (ProliFiler-140)",7.69e-07 M
same,IC50,"Homo sapiens, DLD-1, DLD-1 (Colon), read-out: IC50 [M] (ProliFiler-140)",1.37e-07 M
same,IC50,"Homo sapiens, DU-145, DU-145 (Prostate), read-out: IC50 [M] (ProliFiler-140)",1.5e-07 M
same,IC50,"Homo sapiens, DU-145, DU-145, read-out: IC50",1.5e-07 M
